Read-outs that look alike come from different tables or passages of the source. Where no end group is shown, it is not given here.

Assay [1] has as its system Jurkat cells expressing individual zinc fingers in the protein degradation reporter. In words: Validation of individual zinc fingers in eGFP/mCherry protein degradation reporter (single reporter degradation experiments). The assay is classed as cell-based. The protocol:
FIG. 18A-18B Validation of individual hybrid zinc finger degrons. (FIG. 18A) Vehicle control-normalized eGFP/mCherry fluorescence ratios measured by flow cytometry for Jurkat cells expressing the indicated minimal 23 amino acid zinc finger degron constructs after treatment with pomalidomide or vehicle control. Experiments were performed in triplicate and error bars indicate standard deviation. […] (FIG. 18B) IC50 values for lenalidomide- or pomalidomide-induced degradation of endogenous and hybrid zinc fingers calculated from single reporter degradation experiments. (FIG. 18C) Jurkat cells expressing the 19BBz-d91.3 CAR were treated overnight with lenalidomide and the E1 inhibitor MLN7243 (500 nM), the Neddylation inhibitor […] (5000 nM), the lysosomal acidification inhibitor Chloroquine (50,000 nM), or the lysosomal acidification inhibitor Bafilomycin A (100 nM). CAR degradation requires ubiquitin ligase and Cullin-RING ligase function, and is insensitive to inhibition of autophagy.
FIG. 23. Validation of individual hybrid zinc finger degrons. Individual 23 amino acid zinc finger domains were cloned into the Cilantro 2 protein degradation reporter lentivector. Jurkat cells were transduced with each of these viruses. The GFP/mCherry ratio was calculated in the presence of various thalidomide analogs, indicative of drug-dependent degradation. Dark Gray=hybrid zinc fingers. Light Gray=endogenous zinc fingers. Dotted line=ZFP91-IKZF3.
Jurkat cells were created expressing each of the 6 hybrid and 8 associated parent ZFs and subjected them to a range of doses of lenalidomide, pomalidomide, avadomide, and iberdomide. […] The IC50 for degradation was lower for the 6 hybrid ZFs than their parent ZFs (FIG. 18B). […] One of these validated hybrids, ZFP91-IKZF3, was chosen with 1.6-6.0-times lower IC50 for degradation than IKZF3 across the tested thalidomide derivatives (FIG. 11G) hereafter termed “d91.3”, as a super degron tag for further CAR engineering, which was incorporated for evaluation of on and off-switch CARs.
Jurkat cells expressing a library of 440 C2H2 zinc fingers in a eGFP/mCherry protein degradation reporter vector were treated with DMSO or thalidomide analog drug for 16 hours. mCherry^+eGFP^low cell populations were isolated by FACS in triplicate, and the relative frequency of individual ZFs was quantified with next-generation sequencing. For validation, Jurkat cells were engineered to express individual zinc fingers in the protein degradation reporter; the eGFP:mCherry ratio was determined by flow cytometry after 16 hour incubation with varying concentrations of thalidomide analogs.

The target in assay [2] is CRBN (substrate receptor of the CRL4^CRBN E3 ubiquitin ligase) (UniProt Q96SW2 1-442). In words: cell-based or functional assay.
Chain of CRBN (substrate receptor of the CRL4^CRBN E3 ubiquitin ligase) (Q96SW2 whole entry): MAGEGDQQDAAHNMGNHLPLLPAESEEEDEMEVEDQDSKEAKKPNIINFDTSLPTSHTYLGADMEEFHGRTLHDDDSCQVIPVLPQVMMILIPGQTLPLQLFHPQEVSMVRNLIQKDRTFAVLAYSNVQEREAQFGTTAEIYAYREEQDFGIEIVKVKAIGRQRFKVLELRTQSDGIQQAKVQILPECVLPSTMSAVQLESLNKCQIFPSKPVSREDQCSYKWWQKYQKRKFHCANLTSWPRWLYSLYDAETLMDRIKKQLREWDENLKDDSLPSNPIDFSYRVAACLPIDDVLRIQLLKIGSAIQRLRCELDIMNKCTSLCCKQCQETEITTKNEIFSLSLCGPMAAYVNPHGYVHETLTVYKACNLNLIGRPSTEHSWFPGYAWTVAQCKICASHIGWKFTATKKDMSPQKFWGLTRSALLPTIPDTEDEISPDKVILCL
Where [3] appears, read: CC-122-induced degradation, eGFP:mCherry ratio, 16 hour incubation, read-out: EC50 cc122.
[4] abbreviates: lenalidomide, repeat experiment, read-out: EC50 len repeat.
Setting [5] is: lenalidomide-induced degradation, eGFP:mCherry ratio, 16 hour incubation, read-out: EC50 len.
[6] abbreviates: pomalidomide-induced degradation, eGFP:mCherry ratio, 16 hour incubation, read-out: EC50 pom.

As a reminder, the EC50 is the concentration at which the effect is half-maximal. As to FQCPICGLVIKRHSHLIEHLKRH [HZnF_21], the EC50 in assay [1] (setting [3]) stood at 2.46 nM; in assay [1] (setting [4]), 8.23 nM; in assay [1] (setting [5]), 11.2 nM; in assay [1] (setting [6]), 0.311 nM.

As for LQCEICGFTCRQPKSLARHLRLH [HZnF_23], the EC50 in assay [1] (setting [3]) is 0.983 nM; in assay [1] (setting [4]), 4.66 nM; in assay [1] (setting [5]), 6.45 nM; in assay [1] (setting [6]), 0.146 nM.

On to FQCNQCGASFTRHSHLIEHLKRH [HZnF_10], for which the EC50 came to 32.4 nM in assay [1] (setting [3]), 55.4 nM in assay [1] (setting [5]) and 9.05 nM in assay [1] (setting [6]).

Consider LQCEICGYQCRQPKSLARHLRLH [HZnF_22], for which the EC50 was determined as 2.42 nM in assay [1] (setting [3]), 6.59 nM in assay [1] (setting [4]), 12.2 nM in assay [1] (setting [5]) and 0.212 nM in assay [1] (setting [6]).

As to LQCEICGFTCRWSSHYQYHLRQH [HZnF_04], the concentration for a half-maximal effect (EC50) is 101 nM in assay [1] (setting [3]), 324 nM in assay [1] (setting [5]) and 14.1 nM in assay [1] (setting [6]).

Regarding “YRCRACGRACSRLSTLIQHQKVH [HZnF_03, reference compound]”, the values for the EC50 in assay [1] (setting [3]), in assay [1] (setting [5]) and in assay [1] (setting [6]) were 29.5 nM, 55.2 nM and 4.47 nM, respectively.

As to “HECKLCGASFRTKGSLIRHHRRH [HZnF_07, reference compound]”, the figures for the EC50 in assay [1] (setting [3]), in assay [1] (setting [5]) and in assay [1] (setting [6]) were 58.5 nM, 34.8 nM and 11.3 nM, respectively.

Take “FQCNQCGASFTQKGNLLRHIKLH [HZnF_27, reference compound]”: the EC50 in assay [1] (setting [3]) is 33.5 nM; in assay [1] (setting [4]), 28.2 nM; in assay [1] (setting [5]), 21.9 nM; in assay [1] (setting [6]), 3.1 nM.

For the molecule “LQCEICGYQCRQRASLNWHMKKH [HZnF_12, reference compound]”, the EC50 worked out at 37 nM in assay [1] (setting [3]) and 75.1 nM in assay [1] (setting [5]).

Consider LQCEICGFTCRRHSHLIEHLKRH [HZnF_17], for which the EC50 in assay [1] (setting [3]) worked out at 73.4 nM; in assay [1] (setting [5]), 149 nM; in assay [1] (setting [6]) it was 5.29 nM.

In the case of “LQCEVCGFQCRQRASLKYHMTKH [HZnF_01, reference compound]”, the values for the EC50 in assay [1] (setting [3]), in assay [1] (setting [5]) and in assay [1] (setting [6]) were 73.6 nM, 78.6 nM and 7.41 nM, respectively.

Take LQCEVCGFQCRQPKSLARHLRLH [HZnF_24]: the EC50 in assay [1] (setting [3]) came out at 5.67 nM; in assay [1] (setting [4]) it was 15 nM; in assay [1] (setting [5]), 10.1 nM; in assay [1] (setting [6]), 0.46 nM.

As to “YQCKVCGRAFKRVSHLTVHYRIH [8HZnF__19, label misprinted, reference compound]”, the EC50 was 125 nM in assay [1] (setting [3]), 248 nM in assay [1] (setting [5]) and 16.9 nM in assay [1] (setting [6]).

For “LQCEICGFTCRQKASLNWHMKKH [HZnF_13, reference compound]”, the figures for the EC50 in assay [1] (setting [3]), in assay [1] (setting [5]) and in assay [1] (setting [6]) were 33 nM, 57.8 nM and 5.47 nM, respectively.

As for FQCNQCGASFTTKGSLIRHHRRH [HZnF_08], the EC50 was 10.1 nM in assay [1] (setting [3]), 18.3 nM in assay [1] (setting [5]) and 3.61 nM in assay [1] (setting [6]).

With FQCNQCGASFTRLSTLIQHQKVH [HZnF_06], the concentration giving a half-maximal response (EC50) in assay [1] (setting [3]) came to 56.1 nM; in assay [1] (setting [5]), 433 nM; in assay [1] (setting [6]), 21.9 nM.

As for “FACVICGRKFRNRGLMQKHLKNH [HZnF_11, reference compound]”, the results for the EC50 in assay [1] (setting [3]), in assay [1] (setting [5]) and in assay [1] (setting [6]) were 179 nM, 59.9 nM and 18.8 nM, respectively.

LQCEICGYQCRRKDRMSYHVRSH [HZnF_25]: the EC50 in assay [1] (setting [3]) stood at 0.693 nM; in assay [1] (setting [4]), 3.53 nM; in assay [1] (setting [5]), 6.64 nM. Also, the “pomalidomide-dependent degradation compared with parent ZF” value in assay [1] (pomalidomide) is given as “more efficient pomalidomide-dependent degradation than either parent ZF”.

Regarding YQCKVCGRAFKRLSTLIQHQKVH [HZnF_15], the EC50 in assay [1] (setting [3]) worked out at 35.2 nM; in assay [1] (setting [5]), 71.9 nM; in assay [1] (setting [6]) it was 5.12 nM.

“YGCNECGKNFGRHSHLIEHLKRH [HZnF_09, reference compound]”: the EC50 in assay [1] (setting [3]) was 68.2 nM; in assay [1] (setting [6]), 0.224 nM.

Regarding “FVCPRCGRGFSQPKSLARHLRLH [HZnF_05, reference compound]”, the EC50 was determined as 2.93 nM in assay [1] (setting [3]), 48 nM in assay [1] (setting [5]) and 8.55 nM in assay [1] (setting [6]).

On to FQCNQCGASFTQPKSLARHLRLH [HZnF_20], for which the EC50 in assay [1] (setting [3]) is 5.22 nM; in assay [1] (setting [4]) it was 6.09 nM; in assay [1] (setting [5]) it was 4.59 nM; in assay [1] (setting [6]), 1.05 nM.

Consider “LQCEICGYQCRRLSTLIQHQKVH [HZnF_1, label misprinted]”, for which the EC50 in assay [1] (setting [3]) was found to be 7.07 nM; in assay [1] (setting [5]), 22.5 nM; in assay [1] (setting [6]) it was 1.86 nM.

In the case of “FQCPICGLVIKRKSYWKRHMVIH [HZnF_16, reference compound]”, the EC50 was 50.2 nM in assay [1] (setting [3]), 60.5 nM in assay [1] (setting [5]) and 8.06 nM in assay [1] (setting [6]).

In the case of YQCKVCGRAFKQKGNLLRHIKLH [HZnF_14], the EC50 amounted to 26 nM in assay [1] (setting [3]), 83.1 nM in assay [1] (setting [5]) and 5.19 nM in assay [1] (setting [6]).

For the molecule “YSCPVCGLRFKRKDRMSYHVRSH [HZnF_02, reference compound]”, the EC50 in assay [1] (setting [3]) is 176 nM; in assay [1] (setting [5]), 100 nM.

For “LQCEICGFTCRQKGNLLRHIKLH (FHCNQCGASFTQKGNLLRHIKLH) [HZnF_26]”, the EC50 in assay [1] (setting [3]) is 13.4 nM; in assay [1] (setting [4]) it was 29.4 nM; in assay [1] (setting [5]), 22.9 nM; in assay [1] (setting [6]) it was 0.78 nM.

B1: ZN653_556_578-ZN653_556_578_J1 (peptide)
chain: LQCEICGYQCRQRASLNWHMKKH
modifications: not fully specified; cysteine pairing not given here
With B1, the “EC50 pom: pomalidomide-induced degradation, eGFP/mCherry reporter, Jurkat” value (“EC50 pom … eGFP/mCherry reporter, Jurkat” for short) in assay [2] was 5.17 nM.

B2: ZN653_556_578-PATZ1_383_405_J1 (peptide)
chain: LQCEICGYQCRRKDRMSYHVRSH
modifications: not fully specified; cysteine pairing not given here
With B2, in assay [2], the “EC50 pom … eGFP/mCherry reporter, Jurkat” value was found to be 0.16 nM.

B3: PATZ1_383_405-PATZ1_383_405_J1 (peptide)
chain: YSCPVCGLRFKRKDRMSYHVRSH
modifications: not fully specified; cysteine pairing not given here
Turning to B3, the “EC50 pom … eGFP/mCherry reporter, Jurkat” value in assay [2] is 32.4 nM.
